Source: patent US20260028354A1, “TETRAHYDRONAPHTHALENE DERIVATIVES AS ESTROGEN RECEPTOR DEGRADERS” (REGENT OF THE UNIVERSITY OF MICHIGAN, priority 2022, published 2026)
Where two headings read alike, the source gives them in different places.

Legend:
ER in MCF-7 cells = ER in MCF-7 cells (Homo sapiens (Human), UniProt P03372); experiment: In-cell Western (ICW) ER degradation assay in MCF-7 cells; type: cell-based; conditions: for DC50: MCF-7, ER degradation, read-out: MCF7 DC50
ERα_LBD (GST) = ERα_LBD (GST) (Homo sapiens (Human), UniProt P03372); experiment: IC50 measurements for binding to ERα_LBD (GST), LanthaScreen TR-FRET competitive binding; conditions: ERα_LBD (GST) 4 nM, Fluormone ES2 Green tracer, 60 min; read-out: ERα HTRF IC50
Protocol: In vitro Assay: IC50 Measurements for binding to ERα_LBD (GST) • Final assay conditions: • 1. ERα_LBD (GST) protein: 4 nM • 2. Tb Anti-GST: 2 nM • 3. Fluormone ES2 Green tracer: 3 nM • 4. Incubation time: 60 min • 5. DMSO: 1% • 6. Assay buffer: Adding 1M DTT to Nuclear receptor Buffer K for final 5 mM DTT. • 7. ZPE: 1% DMSO • 8. HPE: 1 μM ARV_471 (positive control) • 9. LanthaScreen® TR-FRET ERα Competitive Binding Assay (ThermoFisher, #A^15887) • 100× Compound preparation
1) Cherry pick 2 μL 10 mM compound stock to column 1 of a 384 intermediate plate. • 2) Add 18 μL DMSO to column 1 to dilute compound to 1 mM. • 3) Transfer 10 μL 1 mM compound to column 1 of a LDV plate. • 2) Add 6 μl DMSO to column 2-10 of the LDV plate. • 3) Compounds undergo 3-fold serial dilution (3 μL+6 μL) in DMSO. • 4) Transfer 120 nL compound solution to assay plate. ZPE: 120 nL 100% DMSO • Procedure:
Complete nuclear receptor buffer K was prepared by adding 1 M DTT to nuclear receptor buffer K for a final concentration of 5 mM DTT. Complete nuclear receptor buffer K must be prepared fresh daily, 2X protein solution was prepared using complete nuclear receptor buffer K containing 8 nM ERα_LBD (GST) and 4 nM Tb Anti-GST. Then, 2X Fluormone ES2 Green tracer (6 nM) was prepared using complete nuclear receptor buffer K. Add 6 μL 2X Fluormone ES2 green tracer into a compound plate (PerkinElmer 6008289) by dragonfly with one-tips-addition. Subsequently, 6 μL 2× protein solution was added into the plate. The 384-well plate was mixed on a plate shaker and incubated at room temperature protected from light for 60 min. The plate was scaled with a cover to minimize evaporation. The plate was read at wavelengths of 520 nm and 495 nm. The TR-FRET ratio was calculated by dividing the emission signal at 520 nm by the emission signal at 495 nm. A binding curve was generated by plotting the emission ratio vs, the log [ligand]. To determine the IC50 value, fit the data using XL-fit for a sigmoidal dose-response.

CRBN/DDB1 = CRBN/DDB1 (Homo sapiens (Human), UniProt Q96SW2); type: binding; conditions: His tagged CRBN+DDB1, Cy5-labeled Thalidomide probe, one hour; read-out: CRBN HTRF IC50
Protocol: The binding potency was determined using HTRF assay technology (Perkin Elmer). Compounds were serially diluted in DMSO and […] volume was transferred to white 384-well plate.

MCF-7 cells = experiment: CellTiter-Glo (CTG) cell proliferation assay in MCF-7 cells; type: cell-based; conditions: Homo sapiens, MCF7, 144 h, MCF-7 cell proliferation, Day 6
Excerpt: CellTiter-Glo® (CTG) Assays in MCF-7 and T47D Cell Lines.
In vitro Assay: MCF-7 and T47D CTG assay

ER in T47D cells = ER in T47D cells (Homo sapiens (Human), UniProt P03372); experiment: In-cell Western (ICW) ER degradation assay in T47D cells; type: cell-based; conditions: 16 hrs treatment; for DC50: ER degradation; for Dmax: maximal ER degradation, read-out: T47D Dmax
[1] = MCF7, MCF-7, maximal ER degradation, 16 hrs treatment, read-out: MCF7 Dmax
[2] = MCF7, read-out: MCF7 Dmax, MCF-7, maximal ER degradation, 16 hrs treatment

ER in MCF-7 cells, sequence (P03372 whole entry): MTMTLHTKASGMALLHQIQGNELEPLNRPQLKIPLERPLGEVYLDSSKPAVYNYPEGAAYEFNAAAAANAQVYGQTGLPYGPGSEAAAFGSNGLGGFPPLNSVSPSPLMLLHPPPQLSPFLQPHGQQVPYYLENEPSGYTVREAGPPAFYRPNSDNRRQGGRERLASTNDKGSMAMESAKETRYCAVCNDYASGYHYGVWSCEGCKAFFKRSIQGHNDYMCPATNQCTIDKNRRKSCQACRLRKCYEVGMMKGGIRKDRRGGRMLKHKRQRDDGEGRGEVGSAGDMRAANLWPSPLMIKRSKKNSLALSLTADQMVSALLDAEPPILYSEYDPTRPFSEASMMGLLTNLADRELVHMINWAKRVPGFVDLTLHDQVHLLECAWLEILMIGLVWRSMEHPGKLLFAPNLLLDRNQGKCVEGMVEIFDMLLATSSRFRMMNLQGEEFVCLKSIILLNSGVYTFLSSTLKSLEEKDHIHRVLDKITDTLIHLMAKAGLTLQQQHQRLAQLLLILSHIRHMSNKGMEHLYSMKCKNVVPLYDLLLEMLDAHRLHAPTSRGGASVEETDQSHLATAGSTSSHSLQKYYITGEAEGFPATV
ER in T47D cells, sequence (P03372 whole entry): as above
CRBN/DDB1, sequence (Q96SW2 whole entry, species assumed): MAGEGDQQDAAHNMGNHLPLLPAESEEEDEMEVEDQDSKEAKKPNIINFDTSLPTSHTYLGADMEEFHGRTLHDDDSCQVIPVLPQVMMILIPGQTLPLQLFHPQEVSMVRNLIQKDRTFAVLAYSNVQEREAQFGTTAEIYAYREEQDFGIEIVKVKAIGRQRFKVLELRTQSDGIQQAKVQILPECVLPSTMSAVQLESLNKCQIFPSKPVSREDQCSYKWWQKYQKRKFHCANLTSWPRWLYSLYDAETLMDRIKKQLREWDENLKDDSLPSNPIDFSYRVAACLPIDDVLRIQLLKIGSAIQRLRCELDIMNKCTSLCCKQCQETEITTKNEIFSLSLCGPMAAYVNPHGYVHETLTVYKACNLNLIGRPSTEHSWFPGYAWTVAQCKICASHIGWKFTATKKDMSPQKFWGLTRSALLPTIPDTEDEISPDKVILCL
CRBN/DDB1, sequence (Q16531 whole entry partner, species assumed): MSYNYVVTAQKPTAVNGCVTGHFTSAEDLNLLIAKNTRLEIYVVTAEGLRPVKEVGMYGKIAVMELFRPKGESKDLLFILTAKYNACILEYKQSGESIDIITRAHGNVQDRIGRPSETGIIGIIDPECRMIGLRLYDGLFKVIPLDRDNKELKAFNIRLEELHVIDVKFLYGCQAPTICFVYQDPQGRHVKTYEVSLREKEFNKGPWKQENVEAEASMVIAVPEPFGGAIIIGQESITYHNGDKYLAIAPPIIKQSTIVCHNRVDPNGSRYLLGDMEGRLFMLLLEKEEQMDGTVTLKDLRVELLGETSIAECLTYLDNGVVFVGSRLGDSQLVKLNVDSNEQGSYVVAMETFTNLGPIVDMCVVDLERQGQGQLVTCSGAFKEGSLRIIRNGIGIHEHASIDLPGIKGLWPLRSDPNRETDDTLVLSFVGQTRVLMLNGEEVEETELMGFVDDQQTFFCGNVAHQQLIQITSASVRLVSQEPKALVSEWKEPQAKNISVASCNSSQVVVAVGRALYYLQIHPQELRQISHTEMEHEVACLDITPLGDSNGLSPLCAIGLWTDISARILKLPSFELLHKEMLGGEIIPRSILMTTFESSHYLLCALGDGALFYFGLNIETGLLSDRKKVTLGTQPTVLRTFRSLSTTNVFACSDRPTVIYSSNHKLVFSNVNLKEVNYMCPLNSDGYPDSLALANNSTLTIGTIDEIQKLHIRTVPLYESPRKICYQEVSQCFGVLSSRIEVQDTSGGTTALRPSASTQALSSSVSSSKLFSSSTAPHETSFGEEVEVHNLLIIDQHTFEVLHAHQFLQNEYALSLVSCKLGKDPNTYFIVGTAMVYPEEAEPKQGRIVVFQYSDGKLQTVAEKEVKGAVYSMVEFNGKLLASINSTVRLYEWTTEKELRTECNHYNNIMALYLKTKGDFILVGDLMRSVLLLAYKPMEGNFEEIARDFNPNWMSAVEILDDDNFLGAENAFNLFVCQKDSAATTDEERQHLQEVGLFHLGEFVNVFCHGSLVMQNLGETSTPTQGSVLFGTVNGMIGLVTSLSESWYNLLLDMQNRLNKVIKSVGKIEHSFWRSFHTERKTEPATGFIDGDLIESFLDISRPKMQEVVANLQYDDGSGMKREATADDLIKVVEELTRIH
ERα_LBD (GST), sequence (P03372 311-547): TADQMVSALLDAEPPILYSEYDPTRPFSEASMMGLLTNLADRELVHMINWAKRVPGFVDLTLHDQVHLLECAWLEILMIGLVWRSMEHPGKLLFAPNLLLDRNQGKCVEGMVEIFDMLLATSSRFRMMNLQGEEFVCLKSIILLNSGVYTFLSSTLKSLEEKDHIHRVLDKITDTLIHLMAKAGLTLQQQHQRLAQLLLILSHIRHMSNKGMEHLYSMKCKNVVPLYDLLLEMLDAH

Row | SMILES | Dmax (ER in MCF-7 cells; [1]) [%] | DC50 (ER in MCF-7 cells; 16 hrs treatment) [µM] | IC50 (ERα_LBD (GST)) [µM] | IC50 (CRBN/DDB1) [µM] | IC50 (MCF-7 cells) [µM] | DC50 (ER in T47D cells) [µM] | Dmax (ER in T47D cells) [%] | Dmax (ER in MCF-7 cells; [2]) [%]
1 | COc1cc(N2CCC3(CC2)C[C@@H](CN2CCN4c5ccc6c(c5OC[C@H]4C2)CN([C@H]2CCC(=O)NC2=O)C6=O)CO3)ccc1[C@@H]1c2ccc(O)cc2CC[C@@H]1c1ccccc1 (single isomer, unassigned) [Compound A134] | > 75 | < 0.001 | < 0.01 |  |  |  |  | 
2 | O=C1CC[C@@H](Nc2ccc(C3CCN(CC4CCC5(CC4)CN(c4ccc([C@@H]6c7ccc(O)cc7CC[C@@H]6c6ccccc6)cc4)C5)CC3)cc2)C(=O)N1 (single isomer, unassigned) [Compound A65] | 50 to 75 | 0.001 to 0.01 |  | 0.05 to 0.5 | 0.01 to 0.1 | < 0.001 | > 75 | 
3 | COc1cc(N2CCC3(CC2)CC(CN2CCN4c5cc6c(cc5OC[C@@H]4C2)C(=O)N([C@H]2CCC(=O)NC2=O)C6)C3)ccc1[C@@H]1c2ccc(O)cc2CC[C@@H]1c1ccccc1 (single isomer, unassigned) [Compound A12] | > 75 | < 0.001 |  | 0.05 to 0.5 | 0.01 to 0.1 | < 0.001 | > 75 | 
4 | COc1c([C@@H]2c3ccc(O)cc3CC[C@@H]2c2ccccc2)ccc(N2CCC3(CC2)CC(CN2CCN4c5cc6c(cc5OC[C@@H]4C2)C(=O)N([C@H]2CCC(=O)NC2=O)C6)C3)c1F [Compound A197, (S)-3-((S)-3-((7-(2-fluoro-4-((1S,2S)-6-hydroxy-2-phenyl-1,2,3,4-tetrahydronaphthalen-1-yl)-3-methoxyphenyl)-7-aza-spiro[3.5]nonan-2-yl)methyl)-8-oxo-1,2,3,4,4a,5,8,10-octa-hydro-9H-pyrazino[1′,2′:4,5] [1,4]oxazino[2,3-f]isoindol-9-yl)piperidine-2,6-dione] | > 75 | < 0.001 |  |  | 0.01 to 0.1 |  |  | 
5 | COC1(CCN2CCC3(CC2)COc2c3ccc3c2CN([C@H]2CCC(=O)NC2=O)C3=O)CCN(c2ccc([C@@H]3c4ccc(O)cc4CC[C@@H]3c3ccccc3)cc2)CC1 [Compound A193, (S)-3-(1′-(2-(1-(4-((1R,2S)-6-hydroxy-2-phenyl-1,2,3,4-tetra-hydronaphthalen-1-yl)phenyl)-4-methoxypiperidin-4-yl)-ethyl)-6-oxo-6,8-dihydro-2H, 7H-spiro[furo[2,3-e]isoindole-3,4′-piperidin]-7-yl)piperidine-2,6-dione] |  | < 0.001 |  |  | 0.01 to 0.1 |  |  | > 75
6 | COc1cc(N2CCC3(CC2)CC(CN2CCC4(CC2)COc2c4cc(Cl)c4c2CN([C@H]2CCC(=O)NC2=O)C4=O)C3)c(F)cc1[C@@H]1c2ccc(O)cc2CC[C@@H]1c1ccccc1 [Compound A200, (S)-3-(5-chloro-1′-((7-(2-fluoro-4-((1S,2S)-6-hydroxy-2-phenyl-1,2,3,4-tetrahydro-naphthalen-1-yl)-5-methoxy-phenyl)-7-azaspiro[3.5]nonan-2-yl)methyl)-6-oxo-6,8-dihydro-2H,7H-spiro[furo[2,3-e]isoindole-3,4′-piperidin]-7-yl)piperidine-2,6-dione] |  | < 0.001 |  |  | < 0.01 |  |  | > 75
7 | O=C1CC[C@H](N2Cc3cc4c(cc3C2=O)OCC42CCN(CC3CC4(CCN(c5cnc(C6c7ccc(O)cc7CCC6c6ccccc6)cn5)CC4)C3)CC2)C(=O)N1 (stereo partly drawn) [Compound A202, (3S)-3-(1′-((7-(5-(6-hydroxy-2-phenyl-1,2,3,4-tetrahydronaph-thalen-1-yl)pyrazin-2-yl)-7-azaspiro[3.5]nonan-2-yl)meth-yl)-7-oxo-5,7-dihydro-2H,6H-spiro[furo[2,3-f]isoindole-3,4′-piperidin]-6-yl)piperidine-2,6-dione] |  | < 0.001 |  |  | > 0.1 |  |  | 50 to 75
8 | COc1cc(N2CCC(CCN3CCC4(CC3)COc3c4ccc4c3CN([C@H]3CCC(=O)NC3=O)C4=O)CC2)c(F)cc1[C@@H]1c2ccc(O)cc2CC[C@@H]1c1ccccc1 [Compound A187, (S)-3-(1′-(2-(1-(2-fluoro-4-((1S,2S)-6-hydroxy-2-phenyl-1,2,3,4-tetrahydronaphthalen-1-yl)-5-methoxyphenyl)piperidin-4-yl)ethyl)-6-oxo-6,8-dihydro-2H,7H-spiro[furo[2,3-e]iso-indole-3,4′-piperidin]-7-yl)-piperidine-2,6-dione] |  | < 0.001 |  |  | 0.01 to 0.1 |  |  | > 75
9 | COc1cc(N2CCC(CCN3CCN4c5cc(C)c6c(c5OC[C@H]4C3)CN([C@H]3CCC(=O)NC3=O)C6=O)CC2)c(F)cc1[C@@H]1c2ccc(O)cc2CC[C@@H]1c1ccccc1 [Compound A229, (S)-3-((R)-7-(2-(1-(2-fluoro-4-((1S,2S)-6-hydroxy-2-phenyl-1,2,3,4-tetrahydronaphthalen-1-yl)-5-methoxyphenyl)piper-idin-4-yl)ethyl)-12-methyl-1-oxo-1,3,5,5a,6,7,8,9-octahydro-2H-pyrazino[1′,2′:4,5][1,4]oxazino[2,3-e]isoindol-2-yl)-piperidine-2,6-dione] | > 75 | < 0.001 |  |  | 0.01 to 0.1 |  |  | 
10 | COc1cc(N2CCC3(CC2)CC(CN2CCC4(CC2)COc2c4cc(OC)c4c2CN([C@H]2CCC(=O)NC2=O)C4=O)C3)c(F)cc1[C@@H]1c2ccc(O)cc2CC[C@@H]1c1ccccc1 [Compound A222, (S)-3-(1′-((7-(2-fluoro-4-((1S,2S)-6-hydroxy-2-phenyl-1,2,3,4-tetrahydronaphthalen-1-yl)-5-methoxyphenyl)-7-azaspiro[3.5]nonan-2-yl)methyl)-5-methoxy-6-oxo-6,8-dihydro-2H,7H-spiro[furo[2,3-e]isoindole-3,4′-piperidin]-7-yl)piperidine-2,6-dione] |  | < 0.001 |  |  | < 0.01 |  |  | > 75
11 | COc1cc(N2CCC3(CC[C@H](CN4CCC5(CC4)COc4c5cc(Cl)c5c4CN([C@H]4CCC(=O)NC4=O)C5=O)CO3)CC2)c(F)cc1[C@@H]1c2ccc(O)cc2CC[C@@H]1c1ccccc1 [Compound A232, (S)-3-(5-chloro-1′-(((R)-9-(2-fluoro-4-((1S,2S)-6-hydroxy-2-phenyl-1,2,3,4-tetrahydronaphthalen-1-yl)-5-methoxyphenyl)-1-oxa-9-azaspiro[5.5]undecan-3-yl)methyl)-6-oxo-6,8-dihydro-2H,7H-spiro[furo[2,3-e]isoindole-3,4′-piperidin]-7-yl)piperidine-2,6-dione] |  | < 0.001 |  |  | < 0.01 |  |  | > 75
12 | O=C1CC[C@H](N2Cc3c(ccc4c3OCC43CCN(CC4CCC5(CC4)CN(c4ccc([C@@H]6c7ccc(O)cc7CC[C@@H]6c6ccccc6)cc4)C5)CC3)C2=O)C(=O)N1 [Compound A177, (S)-3-(1′-((2-(4-((1R,2S)-6-hydroxy-2-phenyl-1,2,3,4-tetra-hydronaphthalen-1-yl)phenyl)-2-azaspiro[3.5]nonan-7-yl)-methyl)-6-oxo-6,8-dihydro-2H,7H-spiro[furo[2,3-e]iso-indole-3,4′-piperidin]-7-yl)-piperidine-2,6-dione] |  | < 0.001 |  |  | > 0.1 |  |  | > 75
13 | COc1cc2c(c3c1C(=O)N([C@H]1CCC(=O)NC1=O)C3)OCC21CCN(C[C@@H]2CCC3(CCN(c4ccc([C@@H]5c6ccc(O)cc6CC[C@@H]5c5ccccc5)cc4)CC3)OC2)CC1 [Compound A236, (S)-3-(1′-(((S)-9-(4-((1R,2S)-6-hydroxy-2-phenyl-1,2,3,4-tetrahydronaphthalen-1-yl)phenyl)-1-oxa-9-azaspiro[5.5]undecan-3-yl)methyl)-5-methoxy-6-oxo-6,8-dihydro-2H,7H-spiro[furo[2,3-e]isoindole-3,4′-piperidin]-7-yl)piperidine-2,6-dione] |  | < 0.001 |  |  | 0.01 to 0.1 |  |  | > 75
